# According to patent US20050197350A1, “Novel quinoline, tetrahydroquinazoline, and pyrimidine derivatives and methods of treatment related to the use thereof” (TAISHO PHARMACEUTICAL CO., LTD., priority 2003, published 2005):
# Tested on: MCH receptors
# Assay: MCH receptor activity class (method not given)
# [1] = MCH receptor, class by percent of control at 10^-7 M or IC50
# [2] = class 1-3 by percent of control at 10^-7 M or IC50
# [3] = class by percent of control at 10^-7 M or IC50
# [4] = class by percent of control at 10^−7 M or IC50
# [5] = activity class 1-3: percent of control at 10^-7 M or IC50
# [6] = activity class per percent of control at 10^-7 M or IC50
structure (smiles),measurement,setting,value
"CN(C)c1cc(N[C@H]2CC[C@@H](CNC(=O)c3ccc(F)c(F)c3)CC2)nc2ccccc12 [compound 160, N-[(cis-4-{[4-(dimethylamino)quinolin-2-yl]amino}cyclohexyl)methyl]-3,4-difluorobenzamide]",class,[1],3 (Class 3 The value of percent of control at 10^−7 M was more than 60% or the value of IC50 was more than 200 nM.)
CN(C)c1nc(N[C@H]2CC[C@@H](NC(=O)C3CCCC3)CC2)nc2c1CCCC2 [compound 561],class,[2],3 (Class 3 The value of percent of control at 10^−7 M was more than 60% or the value of IC50 was more than 200 nM.)
CN(C)c1ccnc(N[C@H]2CC[C@@H](CNC(=O)c3ccc(Cl)cc3)CC2)n1 [compound 370],class,[3],2 (Class 2: The value of percent of control at 10^−7 M was from 40% to 60% or the value of IC′50 was from 50 nM to 200 nM.)
Cc1onc(-c2ccccc2)c1NC(=O)N[C@H]1CC[C@@H](Nc2nccc(N(C)C)n2)CC1 [compound 2256],class,[3],3 (Class 3 The value of percent of control at 10^−7 M was more than 60% or the value of IC50 was more than 200 nM.)
Cc1ccc(F)c(NC(=O)N[C@H]2CC[C@@H](Nc3nc4c(c(N(C)C)n3)CCCC4)CC2)c1 [compound 1860],class,[3],3 (Class 3 The value of percent of control at 10^−7 M was more than 60% or the value of IC50 was more than 200 nM.)
CN(C)c1cc(N[C@H]2CC[C@@H](NC(=O)CCc3ccc(Cl)c(Cl)c3)CC2)nc2ccccc12 [compound 698],class,[3],3 (Class 3 The value of percent of control at 10^−7 M was more than 60% or the value of IC50 was more than 200 nM.)
Cc1cc(N(C)C)nc(N[C@H]2CC[C@@H](NC(=O)c3ccc(F)c(Cl)c3)CC2)n1 [compound 2963],class,[4],1 (Class 1: The value of percent of control at 10^−7 M was less than 40% or the value of IC50 was less than 50 nM.)
"CN(C)c1nc(N[C@H]2CC[C@@H](NC(=O)Nc3c(F)cc(Br)cc3Br)CC2)nc2c1CCCC2 [compound 1671, N-(2,4-dibromo-6-fluorophenyl)-N′-(cis-4-{[4-(dimethylamino)-5,6,7,8-tetrahydroquinazolin-2-yl]amino}cyclohexyl)urea]",class,[5],2 (Class 2: The value of percent of control at 10^−7 M was from 40% to 60% or the value of IC′50 was from 50 nM to 200 nM.)
C[C@@H](NC(=S)N[C@H]1CC[C@@H](Nc2cc(N(C)C)c3ccccc3n2)CC1)c1ccccc1 [compound 2298],class,MCH receptor activity class 1-3 (percent of control at 10^-7 M or IC50),3 (Class 3 The value of percent of control at 10^−7 M was more than 60% or the value of IC50 was more than 200 nM.)
"Cc1cnc(N[C@H]2CC[C@@H](NC(=O)c3cc(F)ccc3F)CC2)nc1N(C)C [compound 2902, N-(cis-4-{[4-(dimethylamino)-5-methylpyrimidin-2-yl]amino}cyclohexyl)-2,5-difluorobenzamide]",class,[4],1 (Class 1: The value of percent of control at 10^−7 M was less than 40% or the value of IC50 was less than 50 nM.)
CN(C)c1cc(N[C@H]2CC[C@@H](NC(=O)OCCOCc3ccccc3)CC2)nc2ccccc12 [compound 1539],class,[5],3 (Class 3 The value of percent of control at 10^−7 M was more than 60% or the value of IC50 was more than 200 nM.)
CCc1ccccc1NC(=S)N[C@H]1CC[C@@H](Nc2nc3c(c(N(C)C)n2)CCCC3)CC1 [compound 1748],class,[3],3 (Class 3 The value of percent of control at 10^−7 M was more than 60% or the value of IC50 was more than 200 nM.)
"Cc1cc(N(C)C)nc(N[C@H]2CC[C@@H](C(=O)NCc3cccc(I)c3)CC2)n1 [compound 2806, cis-4-{[4-(dimethylamino)-6-methylpyrimidin-2-yl]amino}-N-(3-iodobenzyl)cyclohexanecarboxamide]",class,[4],1 (Class 1: The value of percent of control at 10^−7 M was less than 40% or the value of IC50 was less than 50 nM.)
"COc1ccc(OC)c(NC(=O)N[C@H]2CC[C@@H](Nc3nc4c(c(N(C)C)n3)CCCC4)CC2)c1 [compound 1849, N-(2,5-dimethoxyphenyl)-N′-(cis-4-{[4-(dimethylamino)-5,6,7,8-tetrahydroquinazolin-2-yl]amino}cyclohexyl)urea]",class,[3],2 (Class 2: The value of percent of control at 10^−7 M was from 40% to 60% or the value of IC′50 was from 50 nM to 200 nM.)
CCOc1cc(OCC)c(OCC)cc1CNC[C@H]1CC[C@@H](Nc2nccc(N(C)C)n2)CC1 [compound 1295],class,[3],1 (Class 1: The value of percent of control at 10^−7 M was less than 40% or the value of IC50 was less than 50 nM.)
CN(C)c1ccnc(N[C@H]2CC[C@@H](NC(=O)OCCOCc3ccccc3)CC2)n1 [compound 1619],class,[5],3 (Class 3 The value of percent of control at 10^−7 M was more than 60% or the value of IC50 was more than 200 nM.)
COc1cccc(CNC[C@H]2CC[C@@H](Nc3nc4c(c(N(C)C)n3)CCCC4)CC2)c1O [compound 1438],class,[3],3 (Class 3 The value of percent of control at 10^−7 M was more than 60% or the value of IC50 was more than 200 nM.)
CN(C)c1ccnc(N[C@H]2CC[C@@H](NCc3coc4ccc(Cl)cc4c3=O)CC2)n1 [compound 1234],class,[3],3 (Class 3 The value of percent of control at 10^−7 M was more than 60% or the value of IC50 was more than 200 nM.)
Cc1cccc([N+](=O)[O-])c1NC(=O)NC[C@H]1CC[C@@H](Nc2nc3c(c(N(C)C)n2)CCCC3)CC1 [compound 2493],class,[3],3 (Class 3 The value of percent of control at 10^−7 M was more than 60% or the value of IC50 was more than 200 nM.)
COc1ccccc1Oc1ncccc1C(=O)NC[C@@H]1CC[C@H](Nc2ncc(C)c(N(C)C)n2)C1 [compound 3013],class,[4],1 (Class 1: The value of percent of control at 10^−7 M was less than 40% or the value of IC50 was less than 50 nM.)
Cc1cc(Br)ccc1NC(=O)N[C@H]1CC[C@@H](Nc2cc(N(C)C)c3ccccc3n2)CC1 [compound 2159],class,[3],2 (Class 2: The value of percent of control at 10^−7 M was from 40% to 60% or the value of IC′50 was from 50 nM to 200 nM.)
COC(=O)NC[C@H]1CC[C@@H](Nc2cc(N(C)C)c3ccccc3n2)CC1 [compound 1575],class,[5],3 (Class 3 The value of percent of control at 10^−7 M was more than 60% or the value of IC50 was more than 200 nM.)
Cc1ccc(C(=O)N[C@H]2CC[C@@H](CNc3ncc(C)c(N(C)C)n3)CC2)cc1F [compound 2717],class,[4],3 (Class 3 The value of percent of control at 10^−7 M was more than 60% or the value of IC50 was more than 200 nM.)
"C[C@@H](c1ccccc1)N(C(=O)c1ccccc1C(=O)N[C@H]1CC[C@@H](Nc2nccc(N(C)C)n2)CC1)[C@@H](C)c1ccccc1 [compound 879, N′-(cis-4-{[4-(dimethylamino)pyrimidin-2-yl]amino}cyclohexyl)-N,N-bis[(1S)-1-phenylethyl]phthalamide]",class,[3],1 (Class 1: The value of percent of control at 10^−7 M was less than 40% or the value of IC50 was less than 50 nM.)
Cc1nc(N[C@H]2CC[C@@H](NC(=O)c3cnccn3)CC2)nc(N(C)C)c1C [compound 2826],class,[4],3 (Class 3 The value of percent of control at 10^−7 M was more than 60% or the value of IC50 was more than 200 nM.)
"CN(C)c1cc(N[C@H]2CC[C@@H](CNC(=O)c3cccc(I)c3)CC2)nc2ccccc12 [compound 185, N-[(cis-4-{[4-(dimethylamino)quinolin-2-yl]amino}cyclohexyl)methyl]-3-iodobenzamide]",class,[1],3 (Class 3 The value of percent of control at 10^−7 M was more than 60% or the value of IC50 was more than 200 nM.)
CN(C)c1cc(N[C@H]2CC[C@@H](NC(=O)Oc3ccccc3)CC2)nc2ccccc12 [compound 1552],class,[5],3 (Class 3 The value of percent of control at 10^−7 M was more than 60% or the value of IC50 was more than 200 nM.)
CN(C)c1ccnc(N[C@H]2CC[C@@H](CNC(=O)c3ccc(I)cc3)CC2)n1 [compound 386],class,[3],3 (Class 3 The value of percent of control at 10^−7 M was more than 60% or the value of IC50 was more than 200 nM.)
CN(C)c1cc(N[C@H]2CC[C@@H](CNC(=O)Oc3cccc(C(F)(F)F)c3)CC2)nc2ccccc12 [compound 1562],class,[5],3 (Class 3 The value of percent of control at 10^−7 M was more than 60% or the value of IC50 was more than 200 nM.)
CN(C)c1ccnc(N[C@H]2CC[C@@H](CNC(=O)c3cccc(F)c3F)CC2)n1 [compound 446],class,[2],3 (Class 3 The value of percent of control at 10^−7 M was more than 60% or the value of IC50 was more than 200 nM.)
Cc1cc(Br)ccc1NC(=S)N[C@H]1CC[C@@H](Nc2cc(N(C)C)c3ccccc3n2)CC1 [compound 2284],class,[3],2 (Class 2: The value of percent of control at 10^−7 M was from 40% to 60% or the value of IC′50 was from 50 nM to 200 nM.)
CCCSc1ncccc1C(=O)N[C@H]1CC[C@@H](Nc2cc(N(C)C)c3ccccc3n2)CC1 [compound 84],class,[1],3 (Class 3 The value of percent of control at 10^−7 M was more than 60% or the value of IC50 was more than 200 nM.)
C[C@H](C(=O)N[C@H]1CC[C@@H](Nc2nc3c(c(N(C)C)n2)CCCC3)CC1)c1ccc(-c2ccccc2)c(F)c1 [compound 1016],class,[6],2 (Class 2: The value of percent of control at 10^−7 M was from 40% to 60% or the value of IC′50 was from 50 nM to 200 nM.)
CCCCNC(=O)N[C@H]1CC[C@@H](Nc2cc(N(C)C)c3ccccc3n2)CC1 [compound 2125],class,[3],3 (Class 3 The value of percent of control at 10^−7 M was more than 60% or the value of IC50 was more than 200 nM.)
CN(C)c1nc(N[C@H]2CC[C@@H](CNC(=O)c3cccc([N+](=O)[O-])c3)CC2)nc2c1CCCC2 [compound 606],class,[3],3 (Class 3 The value of percent of control at 10^−7 M was more than 60% or the value of IC50 was more than 200 nM.)
CN(C)c1nc(N[C@H]2CC[C@@H](NC(=O)Cc3cc(C(C)(C)C)c(O)c(C(C)(C)C)c3)CC2)nc2c1CCCC2 [compound 979],class,[6],3 (Class 3 The value of percent of control at 10^−7 M was more than 60% or the value of IC50 was more than 200 nM.)
CN(C)c1cc(N[C@H]2CC[C@@H](CNCc3ccc(O)cc3Cl)CC2)nc2ccccc12 [compound 1146],class,[6],3 (Class 3 The value of percent of control at 10^−7 M was more than 60% or the value of IC50 was more than 200 nM.)
